Experimental findings from ChEMBL document CHEMBL5113375, “Development of Mcl-1 inhibitors for cancer therapy” (Eur J Med Chem, 2021) are described below.

SMILES strings stand for the structures. “And” between values parts separate entries of the source, which are not always exact repeats. Equal values may be shown once. A value given as a limit tells only on which side of the number the result lay.

One assay concerns the target T1, BCL2A1/BAK1 (Homo sapiens, UniProt Q16548+Q16611).
T1 sequence (Q16611 whole entry): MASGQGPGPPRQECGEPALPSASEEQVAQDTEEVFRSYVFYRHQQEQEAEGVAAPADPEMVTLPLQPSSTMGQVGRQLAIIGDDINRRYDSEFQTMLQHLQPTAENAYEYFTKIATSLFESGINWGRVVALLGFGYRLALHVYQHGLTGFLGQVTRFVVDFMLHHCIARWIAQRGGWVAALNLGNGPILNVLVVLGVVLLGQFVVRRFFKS
T1 sequence (Q16548 whole entry): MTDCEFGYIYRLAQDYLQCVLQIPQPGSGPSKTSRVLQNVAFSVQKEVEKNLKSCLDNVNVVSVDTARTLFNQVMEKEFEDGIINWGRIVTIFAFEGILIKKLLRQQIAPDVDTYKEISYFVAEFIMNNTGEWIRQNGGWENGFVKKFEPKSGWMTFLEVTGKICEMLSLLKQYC
Kind of assay: Inhibition of Bfl-1/Bak (unknown origin). It counts as protein assay.

Assay [1] deals with Apoptosis regulator Bcl-2/Bcl-2 homologous antagonist/killer (Homo sapiens, UniProt P10415+Q16611). Kind of assay: Inhibition of Bcl-2/Bak (unknown origin). It counts as protein assay.
Chain of Apoptosis regulator Bcl-2/Bcl-2 homologous antagonist/killer (P10415 whole entry, one chain of several): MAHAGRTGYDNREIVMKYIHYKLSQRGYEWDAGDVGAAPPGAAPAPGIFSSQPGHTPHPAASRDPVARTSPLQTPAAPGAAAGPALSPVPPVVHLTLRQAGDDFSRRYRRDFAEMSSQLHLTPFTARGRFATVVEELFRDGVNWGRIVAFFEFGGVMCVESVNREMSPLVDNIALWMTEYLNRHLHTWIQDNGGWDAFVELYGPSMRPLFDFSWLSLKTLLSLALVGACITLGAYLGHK
In assay [2] the target is T2, Induced myeloid leukemia cell differentiation protein Mcl-1 (Homo sapiens, UniProt Q07820). Kind of assay: Binding affinity to Mcl-1 (unknown origin).
T2 sequence (Q07820 whole entry, the tested form may be a part): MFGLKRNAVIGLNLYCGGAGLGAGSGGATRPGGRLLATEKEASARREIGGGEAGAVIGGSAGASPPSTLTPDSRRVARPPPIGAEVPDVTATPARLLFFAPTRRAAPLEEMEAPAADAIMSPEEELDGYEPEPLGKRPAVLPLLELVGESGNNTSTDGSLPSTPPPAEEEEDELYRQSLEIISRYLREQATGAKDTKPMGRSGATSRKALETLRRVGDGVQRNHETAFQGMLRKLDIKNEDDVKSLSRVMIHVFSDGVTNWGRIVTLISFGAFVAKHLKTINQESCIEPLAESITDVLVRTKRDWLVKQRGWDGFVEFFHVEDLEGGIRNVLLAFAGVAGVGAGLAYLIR
Assay [3] deals with T3, Bcl-xL/BH3-interacting domain death agonist (Homo sapiens, UniProt Q07817). Kind of assay: Inhibition of Bcl-xL/Bid (unknown origin) by fluorescence polarization assay. It counts as protein assay. In general terms: Fluorescence polarisation rises when a labelled molecule tumbles more slowly, as on binding a larger partner.
T3 sequence (Q07817 whole entry, one chain of several, the tested form may be a part): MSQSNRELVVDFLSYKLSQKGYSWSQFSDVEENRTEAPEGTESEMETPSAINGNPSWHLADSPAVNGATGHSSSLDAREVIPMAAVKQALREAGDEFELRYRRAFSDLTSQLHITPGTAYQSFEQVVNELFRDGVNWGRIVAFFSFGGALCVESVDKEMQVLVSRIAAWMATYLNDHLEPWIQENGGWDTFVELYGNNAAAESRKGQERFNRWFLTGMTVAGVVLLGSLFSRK
In assay [4] the target is T4, Induced myeloid leukemia cell differentiation protein Mcl-1/BH3-interacting domain death agonist (Homo sapiens, UniProt Q07820). Kind of assay: Inhibition of Mcl-1/Bid (unknown origin) by fluorescence polarization assay. It counts as protein assay.
T4 sequence (Q07820 whole entry, one chain of several, the tested form may be a part): as the sequence (Q07820 whole entry, the tested form may be a part) above
In another assay the target is T5, BCL2L2/BID (Homo sapiens, UniProt P55957+Q92843).
T5 sequence (Q92843 whole entry): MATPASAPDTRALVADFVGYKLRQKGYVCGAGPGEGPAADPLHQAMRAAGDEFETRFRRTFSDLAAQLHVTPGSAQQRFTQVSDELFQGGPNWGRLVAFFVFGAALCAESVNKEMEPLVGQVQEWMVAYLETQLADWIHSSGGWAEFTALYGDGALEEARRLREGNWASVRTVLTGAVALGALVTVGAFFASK
T5 sequence (P55957 whole entry): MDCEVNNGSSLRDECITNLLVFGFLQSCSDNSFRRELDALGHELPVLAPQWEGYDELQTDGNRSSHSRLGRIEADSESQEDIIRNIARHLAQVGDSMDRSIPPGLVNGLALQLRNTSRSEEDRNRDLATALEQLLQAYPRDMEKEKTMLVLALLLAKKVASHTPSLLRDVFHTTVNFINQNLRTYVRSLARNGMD
Kind of assay: Binding affinity to Bcl-W/Bid (unknown origin) by fluorescence polarization assay. The format is protein assay.

The target in assay [5] is T3, Bcl-xL/BH3-interacting domain death agonist. Kind of assay: Inhibition of Bcl-xL/Bid complex (unknown origin). The format is protein assay.
The target in another assay is BCL2/BID (Homo sapiens, UniProt P10415). Kind of assay: Binding affinity to Bcl-2/Bid (unknown origin) by fluorescence polarization assay. The format is protein assay.
Chain of BCL2/BID (P10415 whole entry, one chain of several, the tested form may be a part): as the sequence (P10415 whole entry, one chain of several) above
Assay [6] deals with T3, Bcl-xL/BH3-interacting domain death agonist. Kind of assay: Binding affinity to Bcl-xL/Bid (unknown origin) by fluorescence polarization assay. The format is protein assay.
In a further assay the target is T6, BCL2A1/BID (Homo sapiens, UniProt Q16548).
T6 sequence (Q16548 whole entry): T1 sequence (Q16548 whole entry)
T6 sequence (P55957 whole entry): T5 sequence (P55957 whole entry)
Kind of assay: Binding affinity to Bfl-1/Bid (unknown origin) by fluorescence polarization assay. The format is protein assay.

Assay [7] concerns the target T4, Induced myeloid leukemia cell differentiation protein Mcl-1/BH3-interacting domain death agonist. Kind of assay: Binding affinity to Mcl-1/Bid (unknown origin) assessed as inhibition constant by fluorescence polarization assay. It counts as protein assay.
The target in assay [8] is T2, Induced myeloid leukemia cell differentiation protein Mcl-1. Kind of assay: Binding affinity to Mcl-1 (unknown origin) assessed as inhibition constant by fluorescence polarization assay.
For assay [9], the target named is T7, MCL1-BAK1 complex (Homo sapiens, UniProt Q07820). Kind of assay: Binding affinity to Mcl-1/Bak (unknown origin) assessed as inhibition constant by fluorescence polarization assay. The format is protein-complex assay.
T7 sequence (Q07820 whole entry, one chain of several): as the sequence (Q07820 whole entry, the tested form may be a part) above
The target in assay [10] is T8, Bcl-xL/BAK (Homo sapiens, UniProt Q07817). Kind of assay: Binding affinity to Bcl-xL/Bak (unknown origin) assessed as dissociation constant by ITC method. The format is protein assay.
T8 sequence (Q07817 whole entry, one chain of several): as the sequence (Q07817 whole entry, one chain of several, the tested form may be a part) above
The target of assay [11] is T8, Bcl-xL/BAK. Kind of assay: Inhibition of Bcl-xL/Bak (unknown origin) by fluorescence polarization assay. It counts as protein assay.
In assay [12] the target is T7, MCL1-BAK1 complex. Kind of assay: Inhibition of Mcl-1/Bak (unknown origin) by fluorescence polarization assay. It counts as protein-complex assay.
In assay [13] the target is T9, Bcl-xL/Bcl-2-like protein 11 (Homo sapiens, UniProt Q07817). Kind of assay: Inhibition of Bcl-xL/Bim (unknown origin) by ELISA method. The format is protein assay.
T9 sequence (Q07817 whole entry): as the sequence (Q07817 whole entry, one chain of several, the tested form may be a part) above
T9 sequence (O43521 whole entry, further chain): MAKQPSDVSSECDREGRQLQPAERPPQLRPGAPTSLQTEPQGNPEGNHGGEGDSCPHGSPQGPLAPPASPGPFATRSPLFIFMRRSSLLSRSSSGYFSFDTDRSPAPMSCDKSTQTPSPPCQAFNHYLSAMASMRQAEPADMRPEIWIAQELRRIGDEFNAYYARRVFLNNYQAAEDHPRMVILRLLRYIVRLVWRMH
Assay [14] deals with T10, Induced myeloid leukemia cell differentiation protein Mcl-1/Bcl-2-like protein 11 (Homo sapiens, UniProt Q07820). Kind of assay: Inhibition of Mcl-1/Bim (unknown origin) by ELISA method. It counts as protein assay.
T10 sequence (Q07820 whole entry): as the sequence (Q07820 whole entry, the tested form may be a part) above
T10 sequence (O43521 whole entry, further chain): as the sequence (O43521 whole entry, further chain) above
Assay [15] is described as follows: Induction of apoptosis in Mcl-1 dependent […] cells treated for 48 hrs by Annexin V-FITC staining based flow cytometric analysis. It counts as functional, cell-based. Conditions: Mus musculus, H22, 48 h. (Flow cytometry measures light scatter and fluorescence of single cells or particles in a stream.)
A further assay relates to MCF7. Kind of assay: Induction of apoptosis in Bcl-2 dependent human MCF7 cells treated for 48 hrs by Annexin V-FITC staining based flow cytometric analysis. The format is functional, cell-based. To be noted: MCF7, 48 h.
The target in assay [16] is T2, Induced myeloid leukemia cell differentiation protein Mcl-1. Kind of assay: Binding affinity to wildtype Mcl-1 (unknown origin) assessed as dissociation constant by SPR analysis. (In SPR one partner is held on a chip, and binding of the other changes the refractive index at the surface.)
A short description of assay [17]: Binding affinity to Mcl-1 H224A (unknown origin) assessed as dissociation constant by SPR analysis. Set-up: species or system Homo sapiens.
Assay [18] concerns the target T4, Induced myeloid leukemia cell differentiation protein Mcl-1/BH3-interacting domain death agonist. Kind of assay: Binding affinity to Mcl-1/Bid (unknown origin) by fluorescence polarization assay. It counts as protein assay.
The target of assay [19] is T10, Induced myeloid leukemia cell differentiation protein Mcl-1/Bcl-2-like protein 11. Kind of assay: Inhibition of GST-tagged Mcl-1/Bim (unknown origin) incubated for 15 mins followed by Bim addition measured after 2 hrs by ELISA method. The format is protein assay.
Assay [20] concerns the target T9, Bcl-xL/Bcl-2-like protein 11. Kind of assay: Inhibition of GST-tagged Bcl-xL/Bim (unknown origin) incubated for 15 mins followed by Bim addition measured after 2 hrs by ELISA method. It counts as protein assay.
The target in assay [21] is T8, Bcl-xL/BAK. Kind of assay: Inhibition of Bcl-xL/Bak (unknown origin). It counts as protein assay.
Assay [22] deals with T7, MCL1-BAK1 complex. Kind of assay: Inhibition of Mcl-1/Bak (unknown origin). The format is protein-complex assay.

For `CC1=C(C2=C(C)C(=O)c3c(cc(O)c(O)c3Cc3ccccc3)C2=O)C(=O)c2cc(O)c(O)c(Cc3ccccc3)c2C1=O`, the IC50 stood at 25 µM against BCL2A1/BAK1 and 31 µM in [1].

For the compound `CC1=C(C2=C(C)C(=O)c3c(cc(O)c(O)c3C(C)C)C2=O)C(=O)c2cc(O)c(O)c(C(C)C)c2C1=O`, the affinity in [2], expressed as Ki, was 25 µM. The IC50 in assay [3] came to 0.66 µM; in assay [4] it was 0.025 µM.

The compound `O=C(O)CSc1cc(NS(=O)(=O)c2cccs2)c2ccccc2c1O` displayed a Ki at BCL2L2/BID of 37.5 µM.

`Cc1cs/c(=N\C2CCCCC2)n1/N=C/c1ccc(O)c(O)c1O`: the IC50 in assay [5] was over 50 µM.

As to `O=C(O)CSc1cc(NS(=O)(=O)c2cccc(Br)c2)c2ccccc2c1O`, the Ki was 8.19 µM on BCL2L2/BID; 23.8 µM at BCL2/BID; 33 µM in assay [6]; 5.33 µM at BCL2A1/BID; 0.49 µM in [7]; 0.18 µM in assay [8].

On to `CC(C)C(C(=O)O)N1C(=O)/C(=C/c2ccc(Br)cc2)SC1=S` (stereo unspecified), for which, on MCL1-BAK1 complex [9], the Ki stood at 44 µM. Also, the Kd on Bcl-xL/BAK [10] was found to be 8.7 µM. Further, the figures for the IC50 at Bcl-xL/BAK [11] and on MCL1-BAK1 complex [12] were 91 µM and 110 µM, respectively.

In the case of `O=C(c1ccccc1O)c1[nH]c(Cl)c(Cl)c1-n1c(C(=O)c2ccccc2O)cc(Cl)c1Cl`, the IC50 is 19.7 µM and 12 µM in assay [13]; 12.7 µM and 12.5 µM in assay [14].

On to `O=C(O)c1cc2ccccc2n1S(=O)(=O)c1ccc(OCc2cccc(Cl)c2)cc1`, for which the half-maximal inhibitory concentration (IC50) in [15] turned out to be 9.2 µM; in the assay with MCF7 it was 19.2 µM.

On to `N#CC1=C(C#N)c2ccc(Sc3ccc(Br)cc3)c3cccc(c23)C1=O`, for which the Kd in assay [16] stood at 0.43 µM; in assay [17] it was 0.41 µM.

Consider `O=C(NCCNS(=O)(=O)c1sccc1-c1ccccc1Oc1ccc(O)c(O)c1)Nc1cc(C(F)(F)F)cc(C(F)(F)F)c1`, for which the results for the Ki (in assay [18]; at BCL2/BID; in assay [8]) were 0.33 µM, 1.2 µM and 0.298 µM, respectively.

Regarding `CCOC(=O)CSc1ccc(C(=O)c2[nH]c(Cl)c(Cl)c2-n2cc(Cl)c(Cl)c2C(=O)c2ccc(SCC(=O)OCC)cc2O)c(O)c1`, the IC50 in assay [19] is 1.8 µM; in assay [20], 1.2 µM.

Consider `C[n+]1cc2cc3c(cc2c2ccc4cc5c(cc4c21)OCO5)OCO3`, for which the figures for the IC50 against Bcl-xL/BAK [11] and against MCL1-BAK1 complex [12] were 19 µM and 44 µM, respectively.

`Cc1cc2c(O)c(-c3ccc4c(C(=O)NCC(C)c5ccccc5)c(O)c(O)cc4c3O)c(C)cc2c(C(=O)NCC(C)c2ccccc2)c1C` (stereo unspecified): the IC50 against Bcl-xL/BAK [21] amounted to 0.31 µM; against BCL2A1/BAK1, 0.2 µM; in assay [1], 0.32 µM; against MCL1-BAK1 complex [22], 0.62 µM.

As for `COc1ccc(CSc2ccc(C(=O)c3[nH]c(Cl)c(Cl)c3-n3cc(Cl)c(Cl)c3C(=O)c3ccc(SCc4ccc(OC)cc4)cc3O)c(O)c2)cc1`, the IC50 was 0.7 µM in assay [19] and 0.6 µM in assay [20].

Broadly, the IC50 is the midpoint of a concentration-inhibition curve. High values mean lower potency, low ones higher potency. By Ki is commonly meant a dissociation constant, usually derived from enzyme kinetics or from competition with a known ligand. In general, Kd refers to the constant that tells how readily two partners part at equilibrium.
